Like-named read-outs stand apart in the source and are kept apart here.
Columns and labels:
human CB1 receptor [1] = target: T1, human CB1 receptor (Homo sapiens, UniProt P21554); assay: Human CB1 receptor binding, [3H] CP-55,940 displacement on HEK cell membranes; design: expressed in transfected cells; host or cells: HEK cells, doxycycline-induced; membrane preparation
In short: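 Membranes from doxycycline-induced HEK cells expressing human CB1 incubated 60 min at room temperature with [3H] CP-55,940 (final […]) in 50 mM Tris pH 7.4, 100 mM NaCl, 3 mM MgCl2, 0.2 mM EGTA, 0.04% BSA. Nonspecific binding defined with 50 μM WIN-55,212-2; filtration and scintillation counting gave EC50 and Ki.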

human CB1 receptor [2] = target: T1, human CB1 receptor; assay: [35S] GTPγS binding on membranes of CHO cells expressing the human CB1 receptor (agonism); type: biochemical; design: expressed in transfected cells; membrane preparation
Protocol: Membrane preparation: CHO cells expressing the human CB1 receptor were grown to 80% confluence in Ham's F-12 Nutrient Medium (Invitrogen) containing 10% fetal bovine serum (Invitrogen), 1% pen/strep (Invitogen), 1% Nonessential amino acids (Invitrogen) and 500 μg/ml G418 (Invitrogen). Cells were released from flasks using Cell Dissociation Buffer (Invitrogen). Cells were pelleted by centrifugation at 500×G for 5 minutes. Membranes were prepared by resuspending cells in ice cold Assay Buffer (25 mM Tris pH 7.4, 5 mM EDTA, 5 mM EGTA, Complete Protease Inhibitor (Roche)). Cells were lysed with 12 strokes of a dounce homogenizer. Unlysed cells were pelleted by centrifugation at 500×G for 5 minutes. Membranes were pelleted by centrifugation at 25,000×G for 30 minutes. Membranes were resuspended in TEE, dounced 12 strokes, and pelleted a second time at 25,000×G for 30 minutes. Membrane pellet was resuspended in 50 mM Tris pH 7.4, 100 mM NaCl, 3 mM MgCl2, 0.2 mM EGTA, Complete Protease Inhibitor (Roche). Protein concentration was determined using the Micro-BCA Protein Assay Kit (Pierce) using BSA as a standard. Membranes were frozen and stored at −80 degrees Celsius until use.
GTPγS Binding: 40 μl of test compound was incubated with 20 μl of [^35S] GTPγS (Perkin Elmer) (1250 Ci/millimole) and 140 μl of membrane homogenate (5 μg/well) in polypropylene 96-well plates (Corning). Final reaction conditions were 50 mM Tris pH 7.4, 100 mM NaCl, 3 mM MgCl2, 0.2 mM EGTA, 0.04% BSA. After incubation at 37 degrees Celsius for 45 minutes reactions were harvested by vacuum filtration through Unifilter GF/B-96 filters (Perkin Elmer) using a FilterMate Plate Harvester (Perkin Elmer). Filters were rinsed 4 times with ice cold 50 mM Tris pH 7.4, 3 mM MgCl2, 0.2 mM EGTA and dried at 50 degrees Celsius for at least 30 minutes. 40 μl of Microscint-20 (Perkin Elmer) was added per well, and plates were counted using a Top-Count Microplate Scintillation Counter (Perkin Elmer). Binding data were analyzed and EC50 values were calculated using Graph Pad Prism 4.0 Software.

[3] = GTPγS EC50, human CB1, CHO cell membranes
[4] = human CB1, CHO cell membranes, read-out: GTPγS EC50

T1 sequence (P21554 whole entry): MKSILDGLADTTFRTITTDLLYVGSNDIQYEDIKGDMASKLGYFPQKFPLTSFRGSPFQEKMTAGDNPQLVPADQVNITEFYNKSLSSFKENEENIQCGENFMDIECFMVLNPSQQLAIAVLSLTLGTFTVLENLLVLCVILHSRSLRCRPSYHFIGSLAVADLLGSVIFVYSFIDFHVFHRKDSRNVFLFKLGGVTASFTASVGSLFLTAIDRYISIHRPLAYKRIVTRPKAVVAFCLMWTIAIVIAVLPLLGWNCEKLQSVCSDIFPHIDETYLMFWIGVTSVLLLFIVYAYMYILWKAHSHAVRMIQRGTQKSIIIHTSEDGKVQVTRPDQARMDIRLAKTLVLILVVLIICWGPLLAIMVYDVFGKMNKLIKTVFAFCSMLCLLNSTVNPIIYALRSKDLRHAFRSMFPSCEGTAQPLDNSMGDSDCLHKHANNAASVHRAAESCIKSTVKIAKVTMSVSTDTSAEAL

SMILES: CC(C)(C)[C@H](NC(=O)c1nn(Cc2ccc(F)cc2)c2ccccc12)C(N)=O [Example 1, N-[(1S)-1-(Aminocarbonyl)-2,2-dimethylpropyl]-1-(4-fluorobenzyl)-1H-indazole-3-carboxamide]
- Ki (human CB1 receptor [1]; CB1 Ki): 0.36 nM
- EC50 (human CB1 receptor [2]; [3]): 0.98 nM

SMILES: CC(C)[C@H](NC(=O)c1nn(Cc2ccc(F)cc2)c2ccccc12)C(N)=O [Example 2, N-[(1S)-1-(aminocarbonyl)-2-methylpropyl]-1-(4-fluorobenzyl)-1H-indazole-3-carboxamide]
- Ki (human CB1 receptor [1]; CB1 Ki): 0.9 nM
- EC50 (human CB1 receptor [2]; [3]): 23.2 nM

SMILES: NC(=O)[C@@H](NC(=O)c1nn(Cc2ccc(F)cc2)c2ccccc12)c1ccccc1 [Example 3, N-[(1S)-2-amino-2-oxo-1-phenylethyl]-1-(4-fluorobenzyl)-1H-indazole-3-carboxamide]
- Ki (human CB1 receptor [1]; CB1 Ki): 49.9 nM
- EC50 (human CB1 receptor [2]; [3]): 298 nM

SMILES: CC(C)(C)[C@H](NC(=O)c1nn(Cc2ccccn2)c2ccccc12)C(N)=O [Example 6, N-[(1S)-1-(aminocarbonyl)-2,2-dimethylpropyl]-1-(pyridin-2-ylmethyl)-1H-indazole-3-carboxamide]
- Ki (human CB1 receptor [1]; CB1 Ki): 12.6 nM
- EC50 (human CB1 receptor [2]; [3]): 160 nM

SMILES: CC(C)(C)[C@H](NC(=O)c1nn(Cc2ccccc2)c2ccc(Br)cc12)C(N)=O [Example 7, N-[(1S)-1-(aminocarbonyl)-2,2-dimethylpropyl]-1-benzyl-5-bromo-1H-indazole-3-carboxamide]
- Ki (human CB1 receptor [1]; CB1 Ki): 2.04 nM
- EC50 (human CB1 receptor [2]; [3]): 12.9 nM

SMILES: CC(C)(C)[C@H](NC(=O)c1nn(Cc2ccccc2)c2ccc(-c3cccnc3)cc12)C(N)=O [Example 8, N-[(1S)-1-(Aminocarbonyl)-2,2-dimethylpropyl]-1-benzyl-5-pyridin-3-yl-1H-indazole-3-carboxamide]
- Ki (human CB1 receptor [1]; read-out: CB1 Ki): 118 nM
- EC50 (human CB1 receptor [2]; [4]): 209 nM

SMILES: CC(C)(C)[C@H](NC(=O)c1nn(Cc2ccc(C#N)cc2)c2c(F)cccc12)C(=O)NCCO [Example 10, 1-(4-cyanobenzyl)-7-fluoro-N-[(1S)-1-{[(2-hydroxyethyl)amino]carbonyl}-2,2-dimethylpropyl]-1H-indazole-3-carboxamide]
- Ki (human CB1 receptor [1]; CB1 Ki): 1.91 nM
- EC50 (human CB1 receptor [2]; [3]): 37.5 nM

SMILES: CC(C)(C)[C@H](NC(=O)c1nn(Cc2ccc(F)cc2)c2ccccc12)C(=O)NCc1nnc(C(N)=O)o1 [Example 11, N-{(1S)-1-[({[5-(aminocarbonyl)-1,3,4-oxadiazol-2-yl]methyl}amino)carbonyl]-2,2-dimethylpropyl}-1-(4-fluorobenzyl)-1H-indazole-3-carboxamide]
- Ki (human CB1 receptor [1]; read-out: CB1 Ki): 0.29 nM
- EC50 (human CB1 receptor [2]; [4]): 0.55 nM

SMILES: CC(C)(C)[C@H](NC(=O)c1nn(Cc2ccccc2)c2ncccc12)C(N)=O [Example 12, N-[(1S)-1-(aminocarbonyl)-2,2-dimethylpropyl]-1-benzyl-1H-pyrazolo[3,4-b]pyridine-3-carboxamide]
- Ki (human CB1 receptor [1]; CB1 Ki): 11.5 nM
- EC50 (human CB1 receptor [2]; [3]): 302 nM

SMILES: CC(C)(C)[C@H](NC(=O)c1nn(Cc2ccccc2F)c2ccccc12)C(N)=O [Example 13]
- Ki (human CB1 receptor [1]; CB1 Ki): 0.73 nM
- EC50 (human CB1 receptor [2]; [3]): 11.9 nM

SMILES: CC(C)C(NC(=O)c1nn(Cc2ccccc2F)c2ccccc12)C(N)=O (stereo not shown) [Example 17]
- Ki (human CB1 receptor [1]; CB1 Ki): 4.69 nM
- EC50 (human CB1 receptor [2]; [3]): 149 nM

SMILES: CC(C)(C)C(NC(=O)c1nn(Cc2cccc(F)c2)c2ccccc12)C(N)=O (stereo not shown) [Example 19]
- Ki (human CB1 receptor [1]; CB1 Ki): 2.57 nM
- EC50 (human CB1 receptor [2]; [3]): 20.5 nM

SMILES: CC(C)C(NC(=O)c1nn(Cc2cccc(F)c2)c2ccccc12)C(N)=O (stereo not shown) [Example 20]
- Ki (human CB1 receptor [1]; CB1 Ki): 51.1 nM
- EC50 (human CB1 receptor [2]; [3]): 216 nM

SMILES: CC(C)(C)C(NC(=O)c1nn(Cc2ccccc2)c2ccccc12)C(N)=O (stereo not shown) [Example 27]
- Ki (human CB1 receptor [1]; CB1 Ki): 0.33 nM
- EC50 (human CB1 receptor [2]; [3]): 14.7 nM

SMILES: CC(C)(C)C(NC(=O)c1nn(Cc2ccc(C#N)cc2)c2ccccc12)C(N)=O (stereo not shown) [Example 28]
- Ki (human CB1 receptor [1]; CB1 Ki): 2.05 nM
- EC50 (human CB1 receptor [2]; [3]): 121 nM

SMILES: CC(C)(C)C(NC(=O)c1nn(Cc2ccccc2C#N)c2ccccc12)C(N)=O (stereo not shown) [Example 30]
- Ki (human CB1 receptor [1]; CB1 Ki): 9.22 nM
- EC50 (human CB1 receptor [2]; [3]): 78.9 nM

SMILES: CC(C)(C)C(NC(=O)c1nn(Cc2ccccc2)c2cc(Br)ccc12)C(N)=O (stereo not shown) [Example 33]
- Ki (human CB1 receptor [1]; CB1 Ki): 0.24 nM
- EC50 (human CB1 receptor [2]; [3]): 0.92 nM

SMILES: CC(C)(C)C(NC(=O)c1nn(Cc2ccccc2)c2ccc(-c3ncco3)cc12)C(N)=O (stereo not shown) [Example 35]
- Ki (human CB1 receptor [1]; read-out: CB1 Ki): 35.3 nM
- EC50 (human CB1 receptor [2]; [4]): 271 nM

SMILES: COC(=O)[C@@H](NC(=O)c1nn(Cc2ccccc2)c2ccccc12)C(C)(C)C [Example 38]
- Ki (human CB1 receptor [1]; CB1 Ki): 0.14 nM
- EC50 (human CB1 receptor [2]; [3]): 2.42 nM

SMILES: COc1cccc(CNC(=O)c2nn(Cc3ccccc3)c3ccccc23)c1 [Example 43]
- Ki (human CB1 receptor [1]; CB1 Ki): 27.1 nM
- EC50 (human CB1 receptor [2]; [3]): 101 nM

SMILES: CC(C)(C)[C@H](NC(=O)c1nn(Cc2ccccc2)c2cc(-c3cccnc3)ccc12)C(N)=O [Example 45]
- Ki (human CB1 receptor [1]; read-out: CB1 Ki): 8.79 nM
- EC50 (human CB1 receptor [2]; [4]): 21.4 nM

SMILES: CC(C)(C)[C@H](NC(=O)c1nn(Cc2ccc(C#N)cc2)c2ccccc12)C(=O)NC1CC1 [Example 65]
- Ki (human CB1 receptor [1]; CB1 Ki): 3.85 nM
- EC50 (human CB1 receptor [2]; [3]): 90 nM

SMILES: CC(C)(C)[C@H](NC(=O)c1nn(Cc2ccc(C#N)cc2)c2ccccc12)C(=O)NCCCO [Example 67]
- Ki (human CB1 receptor [1]; CB1 Ki): 46.5 nM
- EC50 (human CB1 receptor [2]; [3]): 827 nM

SMILES: Cc1cc(CNC(=O)c2nn(Cc3ccc(C#N)cc3)c3ccccc23)c(C)o1 [Example 68]
- Ki (human CB1 receptor [1]; CB1 Ki): 4.61 nM
- EC50 (human CB1 receptor [2]; [3]): 90.1 nM

SMILES: CC(C)(C)[C@H](NC(=O)c1nn(Cc2ccc(C#N)cc2)c2ccccc12)C(=O)NCCO [Example 69]
- Ki (human CB1 receptor [1]; CB1 Ki): 18.8 nM
- EC50 (human CB1 receptor [2]; [3]): 183 nM

SMILES: CC(C)(C)[C@H](NC(=O)c1nn(Cc2ccc(C#N)cc2)c2ccccc12)c1nnc(N)o1 [Example 71]
- Ki (human CB1 receptor [1]; read-out: CB1 Ki): 8.85 nM
- EC50 (human CB1 receptor [2]; [4]): 314 nM

SMILES: CC(C)(C)[C@H](NC(=O)c1nn(Cc2ccccc2)c2ccccc12)C(=O)NC[C@H](O)CO [Example 73]
- Ki (human CB1 receptor [1]; CB1 Ki): 22.9 nM
- EC50 (human CB1 receptor [2]; [3]): 217 nM

SMILES: CC(C)(C)C(NC(=O)c1nn(Cc2ccc(F)cc2)c2ccccc12)C(=O)NCC(O)CO (stereo not shown) [Example 77]
- Ki (human CB1 receptor [1]; CB1 Ki): 5.39 nM
- EC50 (human CB1 receptor [2]; [3]): 48.1 nM

SMILES: CC(C)(C)C(NC(=O)c1nn(Cc2ccc(F)cc2)c2ccccc12)c1nnc(NC(=O)C2CC2)o1 (stereo not shown) [Example 78]
- Ki (human CB1 receptor [1]; read-out: CB1 Ki): 0.59 nM
- EC50 (human CB1 receptor [2]; [4]): 2.88 nM

SMILES: CC(C)(C)C(NC(=O)c1nn(Cc2ccc(F)cc2)c2ccccc12)C(=O)NCC(O)CO (stereo not shown) [Example 79]
- Ki (human CB1 receptor [1]; CB1 Ki): 2.02 nM
- EC50 (human CB1 receptor [2]; [3]): 27.1 nM

SMILES: CC(C)(C)C(NC(=O)c1nn(Cc2ccc(F)cc2)c2ccccc12)C(=O)NC1CC1 (stereo not shown) [Example 80]
- Ki (human CB1 receptor [1]; CB1 Ki): 0.21 nM
- EC50 (human CB1 receptor [2]; [3]): 1.82 nM

SMILES: CC(C)(C)C(NC(=O)c1nn(Cc2ccc(F)cc2)c2ccccc12)C(=O)NCCO (stereo not shown) [Example 81]
- Ki (human CB1 receptor [1]; CB1 Ki): 0.32 nM
- EC50 (human CB1 receptor [2]; [3]): 0.98 nM

SMILES: CC(C)(C)C(NC(=O)c1nn(Cc2ccc(F)cc2)c2ccccc12)C(=O)NCC(N)=O (stereo not shown) [Example 82]
- Ki (human CB1 receptor [1]; CB1 Ki): 1.12 nM
- EC50 (human CB1 receptor [2]; [3]): 22.1 nM

SMILES: CC(C)(C)C(NC(=O)c1nn(Cc2ccccc2)c2ccccc12)C(=O)NCCNC(N)=O (stereo not shown) [Example 83]
- Ki (human CB1 receptor [1]; CB1 Ki): 15.3 nM
- EC50 (human CB1 receptor [2]; [3]): 720 nM

SMILES: CC(C)(C)C(NC(=O)c1nn(Cc2ccc(F)cc2)c2ccccc12)C(=O)NCCNC(N)=O (stereo not shown) [Example 85]
- Ki (human CB1 receptor [1]; CB1 Ki): 1.72 nM
- EC50 (human CB1 receptor [2]; [3]): 16.1 nM

SMILES: CC(C)(C)C(NC(=O)c1nn(Cc2ccc(C#N)cc2F)c2ccccc12)C(N)=O (stereo not shown) [Example 86]
- Ki (human CB1 receptor [1]; CB1 Ki): 2.75 nM
- EC50 (human CB1 receptor [2]; [3]): 34.2 nM

SMILES: CC(C)(C)C(NC(=O)c1nn(Cc2ccc(C#N)cc2F)c2ccccc12)C(=O)NC1CC1 (stereo not shown) [Example 87]
- Ki (human CB1 receptor [1]; CB1 Ki): 2.26 nM
- EC50 (human CB1 receptor [2]; [3]): 46.1 nM

SMILES: CC(C)(C)C(NC(=O)c1nn(Cc2ccc(C#N)cc2F)c2ccccc12)c1nnc(NC(=O)C2CC2)o1 (stereo not shown) [Example 88]
- Ki (human CB1 receptor [1]; read-out: CB1 Ki): 15.4 nM
- EC50 (human CB1 receptor [2]; [4]): 132 nM
